Data on 1 compound can be found in article PMC6060383, “Synthesis and pharmacological evaluation of novel isoquinoline N-sulphonylhydrazones designed as ROCK inhibitors” (Journal of Enzyme Inhibition and Medicinal Chemistry, 2018).

“Also recorded” adds a separate entry of the source.

For data set [1], the target named is T1, ROCK2 human recombinant enzyme (Homo sapiens, UniProt O75116).
T1 construct: purchased EUROFINS-CEREP France (contract assay, study numbers 100033685 and 100040481); host or cells: Sf21 insect cells
Kind of data set: ROCK2 inhibition assay (Eurofins-Cerep, phosphorylation of Ulight-RRRSLLE substrate). The format is biochemical. As for the experimental part:
(§1) The analysis was performed using software developed at Cerep (Hill software) and GraphPad Prism® 5.0 (GraphPad Software, Inc., San Diego, CA) and validated through comparison with results generated using the SigmaPlot 4.0 software.
(§2) Prior to this assay, we evaluated the solubility of these compounds in water (buffer pH 7.4) to ensure that the inhibition percentages were not influenced by the precipitation of the compounds under test conditions.

The next data set has as its target T2, IKK-β (Homo sapiens, UniProt O14920).
T2 sequence (O14920 1-756): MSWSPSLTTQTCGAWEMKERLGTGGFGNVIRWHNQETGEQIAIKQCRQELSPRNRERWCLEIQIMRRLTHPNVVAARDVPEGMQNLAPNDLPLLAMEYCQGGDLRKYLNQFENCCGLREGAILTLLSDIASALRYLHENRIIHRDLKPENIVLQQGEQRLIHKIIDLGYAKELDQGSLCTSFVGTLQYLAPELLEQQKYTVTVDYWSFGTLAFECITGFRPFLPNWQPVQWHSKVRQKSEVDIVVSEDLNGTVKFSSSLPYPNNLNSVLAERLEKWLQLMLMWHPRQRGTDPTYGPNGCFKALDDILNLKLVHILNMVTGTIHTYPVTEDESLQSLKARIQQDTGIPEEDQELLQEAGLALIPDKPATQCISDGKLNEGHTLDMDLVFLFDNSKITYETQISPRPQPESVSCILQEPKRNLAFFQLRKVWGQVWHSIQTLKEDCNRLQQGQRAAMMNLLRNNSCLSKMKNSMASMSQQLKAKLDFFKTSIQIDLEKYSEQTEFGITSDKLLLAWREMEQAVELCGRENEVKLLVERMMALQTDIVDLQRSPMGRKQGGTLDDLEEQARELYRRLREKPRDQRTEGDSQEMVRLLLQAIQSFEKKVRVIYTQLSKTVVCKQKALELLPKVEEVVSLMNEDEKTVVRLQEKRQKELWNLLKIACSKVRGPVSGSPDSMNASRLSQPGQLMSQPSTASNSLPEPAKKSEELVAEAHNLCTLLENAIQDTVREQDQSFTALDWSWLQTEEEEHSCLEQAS
Kind of data set: IKK-β inhibition screening. The format is biochemical. The following applies: screening concentration of 10 μM; data not shown. From the text: Furthermore, considering that 2 (LASSBio-1524) was used in the structural design of this new family of ROCK inhibitors we also investigated the ability of 5b (LASSBio-2020) and 11 (LASSBio-2065) to inhibit IKK-β.

Data set [2] relates to MDA-MB 231 cells. Put plainly: Plasma membrane integrity assay (LDH). Type of data set: cell-based, human. The following applies: 0.1 to 30 µM, 24 and 48 h. As for the experimental part: (§3) The human mammary gland/breast epithelial cell line MDA-MB 231 was obtained from the American Type Culture Collection (ATCC® HTB-26™) and this use was approved by the Ethics Committee for Animal Care and Use in Scientific Research from the Federal University of Rio de Janeiro. Cells were routinely grown in RPMI medium containing 10% foetal bovine serum (FBS), 1% L-glutamine and 1% penicillin-streptomycin, in a humidified 5% CO2 atmosphere at 37 °C. Cells were cultured up to 70–100% confluence and then some cultures were treated with the compounds at different concentrations for 24 or 48 h. All cell culture reagents were purchased from Invitrogen (São Paulo, Brazil).
To measure plasma membrane integrity, we assayed serum lactate dehydrogenase (LDH) levels and calculated percentages of LDH release to the medium. LDH activity was measured spectrophotometrically using a commercial kit (Doles, Goiás, Brazil). […] Then, 10 μl of NAD were added and absorbance intensities were measured in a microplate reader (FlexStation® 3 Reader, Molecular Devices) at 490 nm. The percentage of LDH release was calculated by ([LDH] sample ×100)/total [LDH]. […]
We also analysed the plasma membrane integrity by measuring the serum lactate dehydrogenase (LDH) levels in the culture medium to confirm the cell viability data. […]

Data set [3] can be described thus: Chemical stability study (pH 2.0 and pH 7.4 buffers). The format is physicochemical. To be noted: 37 °C. The method, then: Two microliters ([…]) of a concentrated solution of the compound under examination (40 mM stock solution solubilized in DMSO) and 248 μL of acid (0.2 M potassium chloride and 0.2 M HCl; pH 2.0) or neutral (phosphate dibasic, pH 7.4) buffer were added to a 2 ml Eppendorf microtube. After vortexing, the mixture was placed in a water bath at 37 °C under vigorous stirring for 0, 30, 60, 120, and 240 min. After each reaction, 248 μL of basic buffer (phosphate buffer, pH 8.4) was added to neutralize the pH of the medium in the experiments using acidic buffer. The compound was extracted using 1 ml of acetonitrile followed by vigorous vortexing and freezing of the aqueous phase (−10 °C). The organic phase was separated, filtered, and analysed using an HPLC-PDA (acetonitrile/water […], 0.05% of TFA).
Due to the possible chemical instability of the imine functional group present in the N-sulphonylhydrazone framework, the stability profiles of compounds 5b (LASSBio-2020) and 11 (LASSBio-2065) were determined. The study was conducted under two conditions, pH 2.0 and pH 7.4, to mimic the acidic stomach and the neutral plasma environments, respectively. The compounds were examined in the presence of acid (pH 2) and neutral (pH 7.4) buffers with stirring for 240 min at a controlled temperature (37 °C).

The subject of data set [4] is MDA-MB 231 cells. Put plainly: Cell-based scratch assay (cell migration). To be noted: 10 or 30 μM, 24 h. Set-up: species or system human. As for the experimental part: as §3
Cells were cultured in 24-well culture plates for 24 h up to 90–100% confluence. Scratched wound lines were created with the help of a 200 μl micropipette tip. […] Images were acquired with an Olympus DP71 digital camera (Olympus, Japan) and the wound area was quantified using Fiji software (based on ImageJ, http://imageJ.nih.gov/ij/) from three different experiments.
The functions of Rho-kinase include the regulation of cellular contraction, motility, morphology, polarity, division, and gene expression. Therefore, we performed a cell-based scratch assay followed by the quantification of the wounded area to analyse whether compounds 5b (LASSBio-2020) and 11 (LASSBio-2065) altered cell migration. […]

In data set [5] the target is T3, ROCK1 human recombinant enzyme (Homo sapiens, UniProt Q13464).
T3 construct: purchased EUROFINS-CEREP France (contract assay, study numbers 100033685 and 100040481); host or cells: Sf9 insect cells
Put plainly: ROCK1 inhibition assay (Eurofins-Cerep, phosphorylation of Ulight-RRRSLLE substrate). Type of data set: biochemical. As for the experimental part: as §1, §2

T3 sequence (Q13464 whole entry): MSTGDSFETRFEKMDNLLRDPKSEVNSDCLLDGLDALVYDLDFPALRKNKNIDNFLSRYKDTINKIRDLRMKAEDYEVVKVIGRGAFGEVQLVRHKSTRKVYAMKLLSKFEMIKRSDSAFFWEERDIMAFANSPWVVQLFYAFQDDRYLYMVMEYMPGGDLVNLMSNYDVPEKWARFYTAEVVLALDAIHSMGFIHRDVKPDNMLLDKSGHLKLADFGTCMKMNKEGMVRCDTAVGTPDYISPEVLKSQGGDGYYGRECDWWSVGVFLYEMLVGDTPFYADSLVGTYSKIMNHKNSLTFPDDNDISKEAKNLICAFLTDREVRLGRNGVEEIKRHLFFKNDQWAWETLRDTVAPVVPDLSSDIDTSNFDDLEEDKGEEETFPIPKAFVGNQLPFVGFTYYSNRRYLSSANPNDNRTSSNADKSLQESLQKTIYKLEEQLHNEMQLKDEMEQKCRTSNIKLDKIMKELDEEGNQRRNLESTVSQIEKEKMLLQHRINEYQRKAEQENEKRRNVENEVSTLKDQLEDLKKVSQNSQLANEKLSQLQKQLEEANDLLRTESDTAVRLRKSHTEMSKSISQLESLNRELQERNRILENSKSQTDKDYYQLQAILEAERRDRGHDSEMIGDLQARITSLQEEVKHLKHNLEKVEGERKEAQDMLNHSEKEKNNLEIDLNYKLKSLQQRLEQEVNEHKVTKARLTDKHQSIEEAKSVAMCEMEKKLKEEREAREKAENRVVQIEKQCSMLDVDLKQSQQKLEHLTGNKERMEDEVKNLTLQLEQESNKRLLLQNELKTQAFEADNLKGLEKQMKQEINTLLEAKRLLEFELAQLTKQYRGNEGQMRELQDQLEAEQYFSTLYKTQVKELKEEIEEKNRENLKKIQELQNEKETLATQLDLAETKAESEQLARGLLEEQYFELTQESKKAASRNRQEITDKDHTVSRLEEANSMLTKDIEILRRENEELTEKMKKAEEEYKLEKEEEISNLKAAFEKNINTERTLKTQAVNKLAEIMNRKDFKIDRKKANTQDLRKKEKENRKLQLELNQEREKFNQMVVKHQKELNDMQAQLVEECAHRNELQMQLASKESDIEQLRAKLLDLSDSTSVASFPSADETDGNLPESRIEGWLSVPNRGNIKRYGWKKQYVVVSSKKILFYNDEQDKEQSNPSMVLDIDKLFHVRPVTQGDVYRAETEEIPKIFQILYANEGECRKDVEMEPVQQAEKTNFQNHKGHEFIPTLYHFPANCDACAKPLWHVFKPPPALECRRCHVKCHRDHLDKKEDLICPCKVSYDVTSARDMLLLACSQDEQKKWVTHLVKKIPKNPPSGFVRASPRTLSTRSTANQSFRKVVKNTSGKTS
T1 sequence (O75116 1-543 limits assumed): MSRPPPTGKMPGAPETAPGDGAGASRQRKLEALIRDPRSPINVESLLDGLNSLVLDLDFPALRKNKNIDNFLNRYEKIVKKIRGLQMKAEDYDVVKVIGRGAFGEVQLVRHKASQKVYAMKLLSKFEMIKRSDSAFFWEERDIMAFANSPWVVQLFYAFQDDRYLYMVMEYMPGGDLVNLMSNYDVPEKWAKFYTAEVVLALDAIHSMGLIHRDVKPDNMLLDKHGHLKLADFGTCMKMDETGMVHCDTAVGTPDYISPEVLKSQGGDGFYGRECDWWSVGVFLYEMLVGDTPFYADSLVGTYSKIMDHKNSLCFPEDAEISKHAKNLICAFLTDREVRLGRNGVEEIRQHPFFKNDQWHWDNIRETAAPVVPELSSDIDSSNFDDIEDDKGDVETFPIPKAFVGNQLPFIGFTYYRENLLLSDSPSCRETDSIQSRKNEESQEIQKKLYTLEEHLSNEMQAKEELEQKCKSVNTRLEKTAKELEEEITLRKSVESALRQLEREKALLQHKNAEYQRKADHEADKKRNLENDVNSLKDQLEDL

Compound `CN(/N=C/c1ccccc1)S(=O)(=O)c1cccc2cnccc12` [Compound 11, (E)-N′-benzylidene-N-methylisoquinoline-5-sulphonohydrazide] returned a melting point of 108 °C. The “decrease in the IC50 for ROCK2 relative to 5b” value in data set [1] (N-methylated 11 versus 5b) was ~1.8 fold. Moreover, in data set [1] (human recombinant ROCK2, five-point assay, 1 to 50 µM, mean of two experiments), the IC50 stood at 3.8 µM. Moreover, the “IKK-β inhibition (result in words)” value at IKK-β is recorded as “none of these N-sulphonylhydrazone derivatives was able to inhibit IKK-β”. Besides, the “LDH levels in culture medium / cytotoxicity in LDH assay (result in words)” value with MDA-MB 231 cells [2] is “not altered”. Besides, the “recovery percentage under acidic conditions” value in data set [3] (pH 2, after 30 min of incubation) was determined as 88%. Moreover, in data set [3] (pH 7.4, after 4 h), the “degradation in neutral medium” value is recorded as “less than 20%”. Moreover, the “effect on cell migration (result in words)” value in the data set with MDA-MB 231 cells [4] is given as “inhibited MDA-MB 231 cell migration; also recorded: effective at inhibiting cell migration”. In data set [5] (N-methylated 11 versus 5b), the “decrease in the IC50 for ROCK1 relative to 5b” value was “approximately 4 fold”. Moreover, in data set [5] (human recombinant ROCK1, five-point assay, 1 to 50 µM, mean of two experiments), the IC50 came out at 3.1 µM.
